Laboratory results published in US20260355330A1, “CELL PENETRATING PEPTIDES AND USES THEREOF” (VECTIOPEP OÜ, priority 2022, published 2026).
Positions of bridges follow the written chain, without caps; N, C: chain ends. Non-standard residues stand in square brackets, D forms with d. Residues, ends and D or L forms follow the SMILES beside them. Chains are numbered I, II in the order given. *: point of attachment. Stearoyl = CCCCCCCCCCCCCCCCCC(=O)*; Dab = NCC[C@H](N)C(=O)O

Legend:
CHO-K1 cells = test: Delivery of reporter mRNA with CPPs in cell culture (luciferase luminescence 24 h post-transfection); type: cell-based; details: for Average RLU/mg (reporter levels post-transfection of mRNA): firefly luciferase mRNA, 0.1 μg per well, charge ratio 3:1, serum containing media, 24 h, RLU normalised to total protein in lysate; for Efficiency of mRNA transfection/delivery: FIG. 1 / Table 2, cell culture; for Delivery of mRNA compared to NF55: comparator NF55
Experimental: FIG. 1: Delivery of reporter mRNA with CPPs in cell culture—evaluation of reporter levels post-transfection (relative light units normalised to total protein in the cell lysate (RLU/mg)). Naked mRNA treated cells were used as controls and Lipofectamine3000 (LF3000) was used to compare the transfection efficacy with a liposome-based transfection reagent.
Adherent CHO-K1 cells were grown in Dulbecco's Modified Eagle's Medium (DMEM), which were supplemented with 0.1 mM non-essential amino acids, 1.0 mM sodium pyruvate, 100 U/ml penicillin, and […]. For complete media, 10% (final) fetal bovine serum (FBS) was added. Cells were maintained in a humidified incubator at 37 °C, 5% CO2. Cell viability and confluence was assessed daily and the cell density was reduced regularly. For cell counting, we used the CytoSMART cell counter accompanied by 0.4% trypan blue staining prior measurement. The multi-well plates with cell cultures used for experiments were incubated in a humidified incubator at 37 °C, 5% CO2.
For in vitro experiments 0.1 μg of nucleic acid (plasmid DNA (pDNA) or mRNA) was used per 96-well plate well. For CPP/NA complex formation, the diluted NA was mixed with CPP in water. Complexes were formed based on the theoretical charge ratio (CR) of positive charges from the peptide in excess to the negative charges from nucleic acid backbone, at charge ratio 3:1 with peptide in excess. Commercial reagent Lipofectamine3000 (LF3000) was used according to the manufacturer's recommendations for the transfection of adherent cells.
For reporter luminescence (expressed from firefly luciferase encoding mRNA or plasmid pDNA) assessment in adherent cell culture, 10,000 cells per 96-well plate well were seeded in 100 μl of media one day prior to transfection. Shortly before transfection, cell media was replaced with 100 μl of serum containing (10% foetal bovine serum) DMEM media. CPPs and mRNA or pDNA were mixed at a charge ratio 3:1 in ultrapure water and incubated at room temperature before addition to cells in serum containing media. Cells were transfected with 0.1 μg of mLuc per well.
24 hours post-transfection, the media was aspirated, cells were washed with 1×PBS, and 30 μl of lysis buffer (0.1% Triton X100 in 1×PBS) was added. Cells were incubated with lysis buffer for 20 min. to lyse the cells. From the lysate, 20 μl was transferred to a black frame white well 96-well plate for luminescence measurement after addition of substrate luciferin (PerkinElmer) in buffer. The luminescence signal was detected with GloMax® 96 microplate luminometer equipped with GloMax® 1.9.2 software (Promega). RLU values were converted to RLU/mg by normalization to total protein in cell lysate, reflecting total number of cells. For protein detection, a Pierce™ BCA Protein Assay Kit was used.
The present inventors have previously reported CPPs developed from the NickFect (NF) and PepFect (PF) families for plasmid (pDNA), siRNA and miRNA delivery (see, e.g. WO 2020/144317, WO 2010/039088 and WO 2012/113846). With the emergence of mRNA-based therapeutics, it was decided to investigate peptides for their ability to deliver mRNA. It was assumed that CPPs that are efficient for siRNA and miRNA delivery, e.g. histidine containing CPPs (Porosk et. al. (2019)), may be good candidates for the delivery of mRNA. Therefore, CPPs from each main family (NF55-, PF14- and NF70-derived CPPs) were tested for mRNA delivery/transfection. Naked mRNA treated and untreated cells were used as control groups. LF3000 was used to compare the transfection efficacy of liposome-based transfection reagents with the CPPs (FIG. 1).

[1] = test system: liver, spleen, lung, kidney, heart and thymus of Balb/c mice; test: Biodistribution of reporter levels post-transfection of mRNA or pDNA with CPPs in vivo (tissue homogenate)
Experimental: FIG. 3: Biodistribution of reporter levels post-transfection of mRNA or pDNA with NFs or PFs CPPs in vivo. Reporter gene product levels were evaluated from the whole tissue homogenates collected post mortem. Results are shown as the fold change to mRNA or pDNA treated mice.
(§1) The transfection complexes (CPP/mRNA) were formed using 10 μg of mRNA mixed with each peptide at indicated charge ratios (CRs) in MQ water in a final volume of 100 μl. CRs were calculated theoretically and account for both the positive charges of the peptide and negative charges of the nucleic acid. The transfection complexes (CPP/mRNA and CPP/pDNA) were formed using 50 μg of mRNA mixed with each peptide at indicated charge ratios (CRs) in MQ water in a final volume of 168 μl. The complexes were incubated for 30 minutes at room temperature and then mixed with equal volume of 10% glucose (resulting in a final solution of 5% glucose in a total volume of 200 μl for 10 μg dose groups and 336 μl for 50 μg dose groups) and immediately injected intravenously via the tail vein.
(§2) The reporter gene (luciferase) expression levels were evaluated from the tissue homogenate post mortem 16-24 h after single injection.
In order to determine to which organs in vivo mRNAs may be delivered to with NickFect or PepFect CPPs, mRNA complexes with NF55, NF71 and PF14 were formed and injected through the tail vein of Balb/c mice (FIG. 3A). The organs were harvested 24 hours after the single injection and reporter signal was measured from whole tissue homogenates. The biodistribution of reporter levels was measured in liver, spleen, lung, kidney, heart and thymus.
In order to compare the biodistribution profiles between harvested organs when using either mRNA or pDNA as cargo, NF424 was used to transfect these 2 types of nucleic acids in vivo (FIG. 3B and Table 4).

BALB/c mice = test: Live animal imaging 1-48 hours post administration of NF424/mRNA or NF424/pDNA complexes; type: in vivo
Experimental: FIG. 4: Live animal imaging 1-48 hours post administration of NF424/mRNA or NF424/pDNA complexes. Reporter gene product levels were evaluated with full body imager at 1 h, 6 h, 12 h, 24 h, and 48 h post-injection.
as §1
100 μl of luciferin (PerkinElmer), at a concentration of 15 mg/ml, was intraperitoneally injected into the mice. After 10 min, the mice were imaged using the In Vivo Imaging System (IVIS Lumina II, PerkinElmer).
Live animal imaging was used to track the timepoints of mRNA and pDNA transfection with NFs (FIG. 4). The CPP used was NF424, complexes were formed in parallel with mRNA or pDNA and injected through the tail vein of BALB/c mice. The reporter gene expression levels were evaluated with full body imager at 1 h, 6 h, 12 h, 24 h and 48 h post-injection.

spleen of BALB/c mice = test: In vivo delivery of mRNA with CPPs - reporter levels in the spleen; details: for Efficacy of mRNA delivery into the spleen in vivo: FIG. 5 / Table 5; for Reporter levels in the spleen (RLU): mRNA, tail vein injection, spleens harvested 16 hours after single injection, whole tissue homogenate
Experimental: FIG. 5: Delivery of mRNA with CPPs in vivo—reporter levels in the spleen. Spleens were harvested post mortem 16 hours post-injection. The reporter levels (RLU) were evaluated from the whole tissue homogenate.
as §1, §2
CPPs and mRNA complexes were injected through the tail vein of BALB/c mice, spleens were harvested 16 hours after the single injection and reporter signal was measured from the whole tissue homogenate (FIG. 5 and Table 5).

[2] = NF424 delivery of mRNA, fold change to mRNA treated mice
[3] = NF424 delivery of pDNA, fold change to pDNA treated mice

SMILES	Average RLU/mg (reporter levels post-transfection of mRNA) (CHO-K1 cells)	Efficiency of mRNA transfection/delivery (CHO-K1 cells; in words)	Delivery of mRNA compared to NF54 (CHO-K1 cells; in words, comparator NF54)	Delivery of mRNA compared to NF55 (CHO-K1 cells; in words)	Fold/mRNA, Liver [1, 2] [Fold]	Fold/mRNA, Lung [1, 2] [Fold]	Fold/mRNA, Spleen [1, 2]	Fold/pDNA, Liver [1, 3] [Fold]	Fold/pDNA, Lung [1, 3] [Fold]	Fold/pDNA, Spleen [1, 3] [Fold]	Organ distribution of mRNA delivery ([1]; in words, mRNA cargo)	Organ distribution of pDNA delivery ([1]; in words, pDNA cargo)	Time at which reporter signal was detected in the spleens (BALB/c mice; NF424/mRNA complexes, 10 μg mRNA, tail vein) [h]	Time at which reporter signal was visible in the lungs (BALB/c mice; NF424/pDNA complexes, 50 μg pDNA, tail vein) [h]	Detected signal, mRNA vs pDNA (BALB/c mice; in words, 10 μg mRNA vs 50 μg pDNA)	Main organ of mRNA delivery (live imaging) (BALB/c mice; in words, mRNA cargo)	Main organ of pDNA delivery (live imaging) (BALB/c mice; in words, pDNA cargo)	Efficacy of mRNA delivery into the spleen in vivo (spleen of BALB/c mice; in words)	Delivery of mRNA in vivo compared to NF54 and/or NF55 (spleen of BALB/c mice; in words, comparator NF54 and/or NF55)	Reporter levels in the spleen (RLU) (spleen of BALB/c mice)
CCCCCCCCCCCCCCCCCC(=O)N[C@@H](C)C(=O)NCC(=O)N[C@@H](Cc1ccc(O)cc1)C(=O)N[C@@H](CC(C)C)C(=O)N[C@@H](CC(C)C)C(=O)NCC(=O)NCC[C@H](N)C(=O)N[C@@H](CC(C)C)C(=O)N[C@@H](CCCCN)C(=O)N[C@@H](C)C(=O)N[C@@H](CC(C)C)C(=O)N[C@@H](C)C(=O)N[C@@H](C)C(=O)N[C@@H](CC(C)C)C(=O)N[C@@H](C)C(=O)N[C@@H](CCCCN)C(=O)N[C@@H](C)C(=O)N[C@H](C(=O)N[C@@H](CC(C)C)C(N)=O)[C@@H](C)CC [NF424] (I: H-[Dab]LKALAALAKAIL-NH2 / II: Stearoyl-AGYLLG; amide I:1-II:C)	2 590 000 000 RLU/mg	the most efficient	good improvement in delivery of cargo such as mRNA over NF54	significantly improved delivery of mRNA over NF55	9	98	8 330 Fold	2	11	5	the highest expression levels were found in the spleen of treated mice	the main expression was found in lungs and liver	≤ 1	6	the detected signal was much higher from mRNA	delivers mRNA mostly to the spleen	pDNA to the lungs	highest reporter levels after mRNA delivery into the spleen in vivo	significantly improved delivery of mRNA in vivo over both NF54 and NF55	427 566 RLU
CCCCCCCCCCCCCCCC(=O)N[C@@H](C)C(=O)NCC(=O)N[C@@H](Cc1ccc(O)cc1)C(=O)N[C@@H](CC(C)C)C(=O)N[C@@H](CC(C)C)C(=O)NCC(=O)NCCC[C@H](N)C(=O)N[C@H](C(=O)N[C@@H](CC(N)=O)C(=O)N[C@@H](CC(C)C)C(=O)N[C@@H](CCCCN)C(=O)N[C@@H](C)C(=O)N[C@@H](CC(C)C)C(=O)N[C@@H](C)C(=O)N[C@@H](C)C(=O)N[C@@H](CC(C)C)C(=O)N[C@@H](C)C(=O)N[C@@H](CCCCN)C(=O)N[C@@H](C)C(=O)N[C@H](C(=O)N[C@@H](CC(C)C)C(N)=O)[C@@H](C)CC)[C@@H](C)CC [NF419]	491 000 000 RLU/mg	–	–	–	–	–	–	–	–	–	–	–	–	–	–	–	–	delivered mRNA into the spleen in vivo with high efficacy	–	179 114 RLU
CCCCCCCCCCCCCCCCCC(=O)N[C@@H](C)C(=O)NCC(=O)N[C@@H](Cc1ccc(O)cc1)C(=O)N[C@@H](CC(C)C)C(=O)N[C@@H](CC(C)C)C(=O)NCC(=O)NCCCC[C@H](N)C(=O)N[C@H](C(=O)N[C@@H](CC(N)=O)C(=O)N[C@@H](CC(C)C)C(=O)N[C@@H](CCCCN)C(=O)N[C@@H](C)C(=O)N[C@@H](CC(C)C)C(=O)N[C@@H](C)C(=O)N[C@@H](C)C(=O)N[C@@H](CC(C)C)C(=O)N[C@@H](C)C(=O)N[C@@H](CCCCN)C(=O)N[C@@H](C)C(=O)N[C@H](C(=O)N[C@@H](CC(C)C)C(N)=O)[C@@H](C)CC)[C@@H](C)CC [NF554] (I: H-KINLKALAALAKAIL-NH2 / II: Stearoyl-AGYLLG; amide I:1-II:C)	1 690 000 000 RLU/mg	the most efficient	–	improved delivery of mRNA over NF55	–	–	–	–	–	–	–	–	–	–	–	–	–	–	–	83 650 RLU
CCCCCCCCCCCCCCCCCCCC(=O)N[C@@H](C)C(=O)NCC(=O)N[C@@H](Cc1ccc(O)cc1)C(=O)N[C@@H](CC(C)C)C(=O)N[C@@H](CC(C)C)C(=O)NCC(=O)NCCC[C@H](N)C(=O)N[C@H](C(=O)N[C@@H](CC(N)=O)C(=O)N[C@@H](CC(C)C)C(=O)N[C@@H](CCCCN)C(=O)N[C@@H](C)C(=O)N[C@@H](CC(C)C)C(=O)N[C@@H](C)C(=O)N[C@@H](C)C(=O)N[C@@H](CC(C)C)C(=O)N[C@@H](C)C(=O)N[C@@H](CCCCN)C(=O)N[C@@H](C)C(=O)N[C@H](C(=O)N[C@@H](CC(C)C)C(N)=O)[C@@H](C)CC)[C@@H](C)CC [NF410]	1 080 000 000 RLU/mg	the most efficient	–	–	–	–	–	–	–	–	–	–	–	–	–	–	–	–	–	36 670 RLU
